According to article PMC7255801, “Disease-associated mutations in the human TRPM3 render the channel overactive via two distinct mechanisms” (eLife, 2020):

Biological target: T1, wild-type hTRPM3α2 (Homo sapiens, UniProt Q9HCF6)
T1 construct: host or cells: HEK293
Experiment: Intracellular Ca2+ assay (GCaMP6f) in 96-well plates, HEK293 cells, wild type channel
Type: cell-based
Method: Intracellular Ca^2+ measurements were performed using a Flexstation-3 96‐well plate reader with rapid well injection (Molecular Devices) as described earlier ([Hughes et al., 2019]) with some modifications. Briefly Human Embryonic Kidney 293 (HEK293) cells were purchased from American Type Culture Collection (ATCC), Manassas, VA, (catalogue number CRL-1573), RRID:CVCL_0045; cell identity was verified by STR analysis by ATCC. HEK293 cells were cultured in MEM supplemented with 10% FBS and 100 IU/ml penicillin plus 100 µg/ml streptomycin in 5% CO2 at 37°C. Additional cell authentication was not performed, but passage number of the cells was monitored, and cells were used up to passage number 25–30 from purchase, when a new batch of cells was thawed with low passage number; cells were tested for the lack of mycoplasma infection. HEK293 cells were transfected with hTRPM3α2-GFP, or its mutants (200 ng) and GCaMP6 (1 μg) using the Effectene reagent (Qiagen). […] GCaMP6 signal was measured at excitation wavelengths 485 nm and fluorescence emission was detected at 525 nm. Sampling interval was 0.86 s and four parallel reads were performed for each condition. […] For measurements at 37°C the MEM medium used to culture the cells was replaced with the measurement solution preheated to 37°C, and the plate was placed in the plate reader warmed to 37°C using its built-in temperature controller.

T1 sequence (Q9HCF6 1-1709 isoform Q9HCF6-5): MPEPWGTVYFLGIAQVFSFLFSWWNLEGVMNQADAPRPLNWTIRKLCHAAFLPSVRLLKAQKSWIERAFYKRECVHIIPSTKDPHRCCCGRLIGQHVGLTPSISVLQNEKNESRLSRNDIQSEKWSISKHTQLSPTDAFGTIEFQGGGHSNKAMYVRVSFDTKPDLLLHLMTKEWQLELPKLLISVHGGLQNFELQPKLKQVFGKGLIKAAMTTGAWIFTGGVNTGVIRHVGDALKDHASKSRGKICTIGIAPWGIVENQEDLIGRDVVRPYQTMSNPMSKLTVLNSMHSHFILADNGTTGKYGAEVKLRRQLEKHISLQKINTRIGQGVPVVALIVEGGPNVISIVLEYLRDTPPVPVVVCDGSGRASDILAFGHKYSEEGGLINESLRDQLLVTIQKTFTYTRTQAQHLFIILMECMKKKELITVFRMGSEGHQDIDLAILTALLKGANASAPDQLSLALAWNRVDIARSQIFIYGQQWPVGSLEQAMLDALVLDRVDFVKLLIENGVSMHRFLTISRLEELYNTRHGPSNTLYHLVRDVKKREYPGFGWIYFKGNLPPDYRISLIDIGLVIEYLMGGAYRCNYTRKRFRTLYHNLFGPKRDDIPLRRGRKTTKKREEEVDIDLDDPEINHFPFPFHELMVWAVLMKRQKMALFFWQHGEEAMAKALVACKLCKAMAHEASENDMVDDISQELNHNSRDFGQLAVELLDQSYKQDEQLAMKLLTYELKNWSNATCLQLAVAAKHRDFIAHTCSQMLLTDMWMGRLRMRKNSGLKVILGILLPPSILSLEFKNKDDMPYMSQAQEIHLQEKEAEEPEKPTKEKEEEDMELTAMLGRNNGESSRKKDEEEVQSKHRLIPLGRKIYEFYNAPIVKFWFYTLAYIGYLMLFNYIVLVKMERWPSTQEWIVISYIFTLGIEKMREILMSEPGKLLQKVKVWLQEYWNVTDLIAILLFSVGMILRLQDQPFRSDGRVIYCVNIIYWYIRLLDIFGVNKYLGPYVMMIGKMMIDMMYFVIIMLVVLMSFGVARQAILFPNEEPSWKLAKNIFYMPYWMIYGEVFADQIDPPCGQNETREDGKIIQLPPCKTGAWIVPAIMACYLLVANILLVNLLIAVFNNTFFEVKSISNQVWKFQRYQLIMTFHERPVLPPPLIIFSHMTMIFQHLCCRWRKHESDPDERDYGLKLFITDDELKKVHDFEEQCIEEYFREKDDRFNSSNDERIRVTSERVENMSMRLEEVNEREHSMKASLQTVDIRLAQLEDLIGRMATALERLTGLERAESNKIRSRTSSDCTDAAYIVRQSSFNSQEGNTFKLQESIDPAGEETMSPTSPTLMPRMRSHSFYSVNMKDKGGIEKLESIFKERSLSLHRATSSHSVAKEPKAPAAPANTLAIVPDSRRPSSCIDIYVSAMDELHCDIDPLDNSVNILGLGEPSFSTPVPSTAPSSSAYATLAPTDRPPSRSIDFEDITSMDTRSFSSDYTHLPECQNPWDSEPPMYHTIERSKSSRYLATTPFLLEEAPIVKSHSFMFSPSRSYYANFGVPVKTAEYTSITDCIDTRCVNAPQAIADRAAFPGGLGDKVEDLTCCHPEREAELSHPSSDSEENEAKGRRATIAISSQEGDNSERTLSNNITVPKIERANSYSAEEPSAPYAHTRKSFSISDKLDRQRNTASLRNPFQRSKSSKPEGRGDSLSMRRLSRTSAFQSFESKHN

SMILES: CCC1(c2ccccc2)C(=O)NCNC1=O [primidone]
- Effect on basal cytoplasmic Ca2+ levels (wild type TRPM3, room temperature (21°C)): no effect
- Effect on basal Ca2+ levels at 37°C (wild type channels, 50 μM, 37°C): reduced basal Ca^2+ levels
